Results: US8058270B2, “Dihydropteridinones for the treatment of cancer diseases” (Boehringer Ingelheim International GmbH, priority 2004, dated 2011)

Columns and labels:
[1] = tested on: cultivated human tumour cells; assay: Alamar Blue cytotoxicity assay (general); assay type: cell-based; details: summary in words, see Table 1
Text: Alamar Blue™ Cytotoxicity Assays
The Alamar Blue™ assay is designed to measure quantitatively the proliferation of cells by incorporating a fluorometric/colorimetric growth indicator based on the detection of metabolic activity.
Cell culture: The various human tumor cell lines can be purchased from American Type Culture Collection (ATCC) or the German Collection of Microorganisms and Cell Cultures (DSMZ) and cultivated in 75 to 175 cm^2 tissue culture flasks in the medium indicated by the supplier. The cells are maintained at 37° C. and 5% CO2 in a humidified atmosphere, with an appropriate split ratio. Logarithmically growing cells are used for the assays.
Assay conditions: On day one of the experiment 1000-4000 cells (in 100 μl medium) are seeded into each well of a sterile 96-well plate. The number of cells used is dependent on the growth rate and size of the cells. Eight wells on each plate are left free to accommodate for controls (4 wells for medium plus reduced AlamarBlue™, and 4 wells for medium plus oxidized AlamarBlue™). The plates are kept in the incubator overnight. On day two of the experiment serial dilutions of the inhibitor are prepared in medium containing 0.1% DMSO. […] After 4-5 h of incubation, the plates are measured in a fluorescence spectrophotometer (excitation 530 nm, emission 590 nm, slits 15, integrate time 0.1). […]

[2] = tested on: cultivated human tumour cells; assay: FACS analysis on PI stained tumor cells, cell cycle progression (general); assay type: cell-based; details: summary in words, see Table 1
Text: FACS Analysis on PI Stained Tumor Cells
Propidium iodine (PI) binds stoichiometrically to double stranded DNA and thus is a suitable agent to measure the DNA content of cells in order to determine the percentage of cells residing in various cell cycle stages (G0/1-, S- and G2/M-phases), whereas cells in G0 or G1 phase do have a diploid DNA content (2N) cells in G2 and M-phase (mitosis) do have a doubled (4N) DNA content.
Cell culture: The various human tumor cell lines can be purchased from American Type Culture Collection (ATCC) or the German Collection of Microorganisms and Cell Cultures (DSMZ) and cultivated in 75 to 175 cm^2 tissue culture flasks in the medium indicated by the supplier. […]
Data analysis: Analysis of the DNA content of the cells can be performed using a FACS analyzer equipped with an argon laser (500 mW, emission 488 nm) and the use of the DNA Cell Quest analysis software (Beckton Dickinson). The logarithmic PI fluorescence is determined in a band-pass filter (Beckton Dickinson 585/43). Quantification of the cell populations residing in the individual cell cycle phases (e.g. G0/G1-, S- and G2/M-phases) is done with the ModFit LT software package from Becton Dickinson. An EC50 value for cells arrested at the G2/M-phase of the cell cycle is calculated by using a sigmoidal curve analysis program (Graph Pad Prism version 3.03).

SMILES: CC[C@@H]1C(=O)N(C)c2cnc(Nc3ccc(C(=O)NC4CCN(C)CC4)cc3OC)nc2N1C1CCCC1 [Example 46, 4-[[(7R)-8-cyclopentyl-7-ethyl-5,6,7,8-tetrahydro-5-methyl-6-oxo-2-pteridinyl]amino]-3-methoxy-N-(1-methyl-4-piperidinyl)-benzamide]
- activity in cytotoxicity tests on cultivated human tumour cells [1]: good to very good activity
- inhibitory effect on cell cycle progression by FACS analysis [2]: good to very good activity
